Results taken from the NIST ThermoML archive (doi:10.1021/je900756g).

Conditions: Liquid; for mass density: Bellows volumetry; for vapor or sublimation pressure: Closed cell (Static) method

F/C=C/C(F)(F)F [trans-1,3,3,3-tetrafluoropropene]
mass density [kg/m3]
Conditions	310 K	320 K	330 K	340 K	350 K	360 K	370 K
2000 kPa	1130.2	1093.3	1054.2	1008.1	953.6	–	–
3000 kPa	1136.3	1100.9	1063.6	1021	972.3	910.5	821.5
4000 kPa	1142.1	1108	1072.2	1032.2	987.6	934.2	867.6
5000 kPa	1147.7	1114.7	1080	1042.4	1000.5	952.9	896.7

Conditions	vapor or sublimation pressure [kPa]
310 K	703
320 K	920
330 K	1183
340 K	1500
350 K	1876
360 K	2320
370 K	2841
380 K	3458
